Assay results from US20260068882A1, “ARTHROPOD CONTROLLING COMPOSITION” (Firmenich SA, priority 2019, published 2026).
Like-named read-outs stand apart in the source and are kept apart here.

Tests used:
[1] = tested on: Ixodes ricinus; test: In vitro Warm Plate Assay for ticks; type: in vivo; conditions: for percentage of ticks affected overtime / ticks' repellency overtime (in words): 20% (w/w) in ethanol; for ticks' repellency overtime (in words): Table 14; for pest or weed control at 0.0016 % / pest or weed control at 0.0053 % / pest or weed control at 0.008 % / pest or weed control at 0.0119 % / pest or weed control at 0.0178 % / pest or weed control at 0.0267 % / pest or weed control at 0.04 % / pest or weed control at 0.0598 % / pest or weed control at 0.089 % / pest or weed control at 0.2 % / pest or weed control at 0.447 % / pest or weed control at 1 %: Ixodes ricinus, read-out: percentage of ticks affected on the Warm Plate
Method in brief: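 Repellency against last-stage Ixodes ricinus nymphs in an in vitro warm plate assay, compounds diluted in ethanol at 0.4 and 10 mg/mL, 0.0016% to 1%, or 20% (w/w). Ticks walking down or falling from the treated plate scored as affected, walking up as unaffected; groups of 12 ticks, n=2-5.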

[2] = tested on: Aedes aegypti; test: In vitro Warm Body assay, mosquitoes landing on treated warm body; type: in vivo; conditions: for % of mosquitoes' repellency: normalised to landing with 100% ethanol; for reduction of landing: 0.0016% (Table 7)
Method in brief: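 Adapted Warm Body assay with host-seeking, non-blood-fed, sugar-fed A. aegypti Rockefeller females aged 5–10 days (10–12 days in one set); cages held 30 (or 25) females at 150 lux. Landings were counted automatically. Doses in ethanol were 0.0016%, 0.04% and 1% in triplicate, or a single replicate across 0.0016–1%.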

[3] = 0.0016% in ethanol (Table 7, one replicate)
[4] = 0.008% in ethanol (Table 7, one replicate)
[5] = 0.0119% in ethanol (Table 7, one replicate)
[6] = 0.04% in ethanol (Table 7, one replicate)
[7] = 0.0598% in ethanol (Table 7, one replicate)
[8] = 0.2% in ethanol (Table 7, one replicate)
[9] = 0.447% in ethanol (Table 7, one replicate)
[10] = 1% in ethanol (Table 7, one replicate)

## CCCCN(CCC(=O)OCC)C(C)=O [IR3535, 3-[N-n-butyl-N-acetyl]aminopropionic acid ethylester, reference compound]
[1]; 0.0016% in ethanol (Table 12)
  percentage of ticks affected on the Warm Plate: 0%
[1]; 0.0053% in ethanol (Table 12)
  percentage of ticks affected on the Warm Plate: 0%
[1]; 0.008% in ethanol (Table 12)
  percentage of ticks affected on the Warm Plate: 8%
[1]; 0.0119% in ethanol (Table 12)
  percentage of ticks affected on the Warm Plate: 0%
[1]; 0.0178% in ethanol (Table 12)
  percentage of ticks affected on the Warm Plate: 0%
[1]; 0.0267% in ethanol (Table 12)
  percentage of ticks affected on the Warm Plate: 0%
[1]; 0.04% in ethanol (Table 12)
  percentage of ticks affected on the Warm Plate: 33%
[1]; 0.0598% in ethanol (Table 12)
  percentage of ticks affected on the Warm Plate: 12%
[1]; 0.089% in ethanol (Table 12)
  percentage of ticks affected on the Warm Plate: 46%
[1]; 0.2% in ethanol (Table 12)
  percentage of ticks affected on the Warm Plate: 57%
[1]; 0.447% in ethanol (Table 12)
  percentage of ticks affected on the Warm Plate: 53%
[1]; 1% in ethanol (Table 12)
  percentage of ticks affected on the Warm Plate: 56%
[1]; 0.25 h post-application
  percentage of ticks affected overtime: 83%
[1]; 0.5 h post-application
  percentage of ticks affected overtime: 40%
[1]; 1 h post-application
  percentage of ticks affected overtime: 83%
[1]; 2 h post-application
  percentage of ticks affected overtime: 58%
[1]; 4 h post-application
  percentage of ticks affected overtime: 58%
[1]; 6 h post-application
  percentage of ticks affected overtime: 0%
[1]; dose of 0.89%
  ticks affected: 46%
[2]; 0.00032% concentration
  % of mosquitoes' repellency: 8%
[2]; 0.0016% concentration
  % of mosquitoes' repellency: 0%
[2]; 0.0016% dilution (Table 4)
  mean ± SD numbers of mosquitoes landed on the Warm Body: 70.0 ± 14.3
[2]; [3]
  number of mosquitoes landed on the Warm Body: 70
[2]; 0.0080% concentration
  % of mosquitoes' repellency: 0%
[2]; [4]
  number of mosquitoes landed on the Warm Body: 63
[2]; [5]
  number of mosquitoes landed on the Warm Body: 22
[2]; 0.040% concentration
  % of mosquitoes' repellency: 69%
[2]; 0.04% dilution (Table 4)
  mean ± SD numbers of mosquitoes landed on the Warm Body: 20.7 ± 2.1
[2]; [6]
  number of mosquitoes landed on the Warm Body: 21
[2]; [7]
  number of mosquitoes landed on the Warm Body: 6
[2]; 0.20% concentration
  % of mosquitoes' repellency: 78%
[2]; [8]
  number of mosquitoes landed on the Warm Body: 9
[2]; [9]
  number of mosquitoes landed on the Warm Body: 0
[2]; 1% concentration
  % of mosquitoes' repellency: 89%
[2]; 1% dilution (Table 4)
  mean ± SD numbers of mosquitoes landed on the Warm Body: 7.7 ± 1.6
[2]; [10]
  number of mosquitoes landed on the Warm Body: 8
[2]; concentrations lower than 0.04%
  repulsion (in words): only low repulsion

## CC1CCC(C(C)(C)O)C(O)C1 (stereo not drawn) [PMD, 2-(2-hydroxypropan-2-yl)-5-methylcyclohexan-1-ol, reference compound]
[1]; 0.25 h post-application
  percentage of ticks affected overtime: 42%
[1]; 0.5 h post-application
  percentage of ticks affected overtime: 42%
[1]; 1 h post-application
  percentage of ticks affected overtime: 83%
[1]; 2 h post-application
  percentage of ticks affected overtime: 50%
[1]; 4 h post-application
  percentage of ticks affected overtime: 8%
[1]; 6 h post-application
  percentage of ticks affected overtime: 17%
[1]
  ticks' repellency overtime (in words): not efficient during these first time points
[1]; 0.0016% in ethanol (Table 12)
  pest or weed control at 0.0016 %: 0%
[1]; 0.0053% in ethanol (Table 12)
  pest or weed control at 0.0053 %: 12%
[1]; 0.008% in ethanol (Table 12)
  pest or weed control at 0.008 %: 4%
[1]; 0.0119% in ethanol (Table 12)
  pest or weed control at 0.0119 %: 4%
[1]; 0.0178% in ethanol (Table 12)
  pest or weed control at 0.0178 %: 4%
[1]; 0.0267% in ethanol (Table 12)
  pest or weed control at 0.0267 %: 0%
[1]; 0.04% in ethanol (Table 12)
  pest or weed control at 0.04 %: 12%
[1]; 0.0598% in ethanol (Table 12)
  pest or weed control at 0.0598 %: 19%
[1]; 0.089% in ethanol (Table 12)
  pest or weed control at 0.089 %: 42%
[1]; 0.2% in ethanol (Table 12)
  pest or weed control at 0.2 %: 84%
[1]; 0.447% in ethanol (Table 12)
  pest or weed control at 0.447 %: 96%
[1]; 1% in ethanol (Table 12)
  pest or weed control at 1 %: 96%
[1]; dose of 0.598%
  ticks affected: 19%
[2]
  reduction of landing: 11%
[2]; [3]
  number of mosquitoes landed on the Warm Body: 58
[2]; [4]
  number of mosquitoes landed on the Warm Body: 40
[2]; [5]
  number of mosquitoes landed on the Warm Body: 36
[2]; [6]
  number of mosquitoes landed on the Warm Body: 8
[2]; [7]
  number of mosquitoes landed on the Warm Body: 1
[2]; [8]
  number of mosquitoes landed on the Warm Body: 1
[2]; [10]
  number of mosquitoes landed on the Warm Body: 0

## c1ccc2c(c1)CC1COCOC21 (stereo not drawn) [ingredient #3, 4,4A,5,9B-tetrahydro-indeno[1,2-D]-1,3-dioxin]
[1]; 0.00032% (Table 9)
  percentage of ticks being affected: 0%
[1]; 0.00071% (Table 9)
  percentage of ticks being affected: 8%
[1]; 0.0016% (Table 9)
  percentage of ticks being affected: 0%
[1]; 0.00357% (Table 9)
  percentage of ticks being affected: 0%
[1]; 0.0053% (Table 9)
  percentage of ticks being affected: 0%
[1]; 0.008% (Table 9)
  percentage of ticks being affected: 0%
[1]; 0.0119% (Table 9)
  percentage of ticks being affected: 0%
[1]; 0.0178% (Table 9)
  percentage of ticks being affected: 0%
[1]; 0.0267% (Table 9)
  percentage of ticks being affected: 0%
[1]; 0.04% (Table 9)
  percentage of ticks being affected: 13%
[1]; 0.0598% (Table 9)
  percentage of ticks being affected: 6%
[1]; 0.089% (Table 9)
  percentage of ticks being affected: 0%
[1]; 0.2% (Table 9)
  percentage of ticks being affected: 24%
[1]; 0.447% (Table 9)
  percentage of ticks being affected: 67%
[1]; 1% (Table 9)
  percentage of ticks being affected: 92%
[1]; 0.25 h post-application
  percentage of ticks affected overtime: 100%
[1]; 0.5 h post-application
  percentage of ticks affected overtime: 92%
[1]; 1 h post-application
  percentage of ticks affected overtime: 8%
[1]; 2 h post-application
  percentage of ticks affected overtime: 17%
[1]; 4 h post-application
  percentage of ticks affected overtime: 15%
[1]; 6 h post-application
  percentage of ticks affected overtime: 33%
[1]
  ticks' repellency overtime (in words): very effective at the first time points
[1]; 0.0016% in ethanol (Table 12)
  pest or weed control at 0.0016 %: 0%
[1]; 0.0053% in ethanol (Table 12)
  pest or weed control at 0.0053 %: 0%
[1]; 0.008% in ethanol (Table 12)
  pest or weed control at 0.008 %: 0%
[1]; 0.0119% in ethanol (Table 12)
  pest or weed control at 0.0119 %: 0%
[1]; 0.0178% in ethanol (Table 12)
  pest or weed control at 0.0178 %: 0%
[1]; 0.0267% in ethanol (Table 12)
  pest or weed control at 0.0267 %: 0%
[1]; 0.04% in ethanol (Table 12)
  pest or weed control at 0.04 %: 13%
[1]; 0.0598% in ethanol (Table 12)
  pest or weed control at 0.0598 %: 6%
[1]; 0.089% in ethanol (Table 12)
  pest or weed control at 0.089 %: 0%
[1]; 0.2% in ethanol (Table 12)
  pest or weed control at 0.2 %: 24%
[1]; 0.447% in ethanol (Table 12)
  pest or weed control at 0.447 %: 67%
[1]; 1% in ethanol (Table 12)
  pest or weed control at 1 %: 92%
[1]; dose of 0.598%
  ticks affected: 6%
[2]
  reduction of landing: 5%
[2]; 0.0016% in ethanol (Table 6)
  number of mosquitoes landed on the Warm Body: 76
[2]; [3]
  number of mosquitoes landed on the Warm Body: 76
[2]; [4]
  number of mosquitoes landed on the Warm Body: 61
[2]; [5]
  number of mosquitoes landed on the Warm Body: 42
[2]; 0.04% in ethanol (Table 6)
  number of mosquitoes landed on the Warm Body: 6
[2]; [6]
  number of mosquitoes landed on the Warm Body: 6
[2]; [7]
  number of mosquitoes landed on the Warm Body: 4
[2]; [8]
  number of mosquitoes landed on the Warm Body: 0
[2]; [9]
  number of mosquitoes landed on the Warm Body: 2
[2]; 1% in ethanol (Table 6)
  number of mosquitoes landed on the Warm Body: 2
[2]; [10]
  number of mosquitoes landed on the Warm Body: 2

## CCCCC[C@@H]1C(=O)CC[C@@H]1CC(=O)OC [ingredient #4, (+)-methyl (1R)-cis-3-oxo-2-pentyl-1-cyclopentaneacetate, reference compound]
[1]
  pest or weed control at 0.0016 %: 15%
  pest or weed control at 0.0053 %: 17%
  pest or weed control at 0.008 %: 8%
  pest or weed control at 0.0119 %: 0%
  pest or weed control at 0.0178 %: 33%
  pest or weed control at 0.0267 %: 36%
  pest or weed control at 0.04 %: 92%
  pest or weed control at 0.0598 %: 100%
  pest or weed control at 0.089 %: 100%
  pest or weed control at 0.2 %: 100%
  pest or weed control at 0.447 %: 92%
  pest or weed control at 1 %: 100%
[2]; [3]
  number of mosquitoes landed on the Warm Body: 66
[2]; [4]
  number of mosquitoes landed on the Warm Body: 53
[2]; [6]
  number of mosquitoes landed on the Warm Body: 16
[2]; [8]
  number of mosquitoes landed on the Warm Body: 17
[2]; [10]
  number of mosquitoes landed on the Warm Body: 4
